# From patent publication US20050136079A1, “Cosmetic compositions containing fullerene clusters” (priority 2003, published 2005)
# Assay: Antioxidant activity (AOA) by coulometric titration with electrogenerated bromine-based oxidants
# Conditions: Coulombs spent for titration of 100 g of analyzed material; sample macerated 1:5 in water or water/alcohol
# Method: The quantitative assessment of the antioxidant activity of the cosmetic composition containing fullerene clusters was tested utilizing bromine-based oxidants generated electrochemically.
# Procedure: • 1. Electrogeneration of bromine-based oxidants and coulonometric tritration were performed with a potentiostate using 1 cm^2 platinum working electrode at a current 5 mA • 2. Bromine oxidant was generated 0.2 M KBr dissolved in 0.1M H2SO4/tartrate buffer solution, which ensure 100% yield of oxidant by current. The final point was determined amperometrically with two polarized platinum electrodes at E=20 mV. • 3. Samples for analysis in water or water/alcohol media were obtained by maceration of the mixture of a cosmetic containing the active ingredient listed in the following table and this media taken in proporation 1:5 by weight. • 4. Antioxidant activity (AOA) is expressed as amount of Coulombs spent for titration of 100 g of the analyzed starting cosmetic substance.
# Bromine compounds including Br2, Br3^− and active bromo-radicals are electrochemically generated and adsorbed at the surface of the platinum electrode and then these radicals act as oxidating agents in redox reactions, reactions of electrophilic substitution and addition to double bonds e.g. in the fullerene molecules in the fullerene cluster of cosmetic composition. […]
structure (smiles),measurement,value
"CCCCC/C=C\C/C=C\CCCCCCCC(=O)O [Linoleic Acid without C60, Linoleic Acid]",AOA,4.8 kCb/100 g
